{
  "source": "patent US20090270342A1",
  "about": "“IMMUNOREGULATORY AGENT” (priority 2006, published 2009)",
  "key": {"[1]": {"tested_on": "IgA and IgG in cecal content", "experiment": "pH, weight, IgA and IgG of cecal content (Experiment 2)", "type": "in vivo, mice", "conditions": "Lactosucrose 5% (w/w) diet, four weeks", "procedure": "The effect of lactosucrose on the enhancement of gut immunity was investigated by measuring the amounts of IgA and IgG in cecal content. Mice reared for four weeks on the test diet comprising 5% (w/w) of lactosucrose or the control diet, “AIN-93G”, in Experiment 1 were sacrificed and the cecums were extirpated. Successively, the cecal content in each mouse was collected from the cecum and the pH, weight, the amounts of IgA and IgG were measured. The amounts of IgA and IgG were determined by ELISA using an anti-IgA antibody and that using an anti-IgG antibody (Mouse IgG ELISA Quantitation Kit produced by Bethyl Laboratories, Inc., Texas, USA), and expressed by mg/g-cecal content and ng/g-cecal content, respectively. The percentages in parentheses in Table 2 mean the relative values to those of the control."}, "[2]": {"tested_on": "cedar- and Japanese cypress-pollen disease", "experiment": "Clinical symptom scores in cedar- and Japanese cypress-pollen allergy, double blind test (Experiment 8)", "type": "in vivo, human", "procedure": "In Experiments 4 to 7, it was confirmed that the production of IgE and cytokines, which involves in allergic symptoms, is suppressed by ingesting lactosucrose. Based on the results, an experiment for investigating the suppressing effect of lactosucrose on the clinical symptoms caused by ceder- and Japanese cypress-pollen was carried out as follows. Volunteers who had been self-diagnosed to have allergic symptoms of nose or eyes at a season of cedar- and Japanese cypress-pollen (February to May) in the past two to three years, were recruited as subjects. An interview about the clinical symptoms of nose and eyes for the past two to three years was carried out to the applied volunteers with referencing a guideline for the diagnosis of pollinosis, “HANA ALLERGY SHINDAN GUIDELINE—TUNENSEI BIEN TO KAFUNSHO—2005 NENDO-BAN (Guideline for the diagnosis of nose allergy—chronic allergic rhinitis and pollinosis 2005 edition)”, edited by the committee for the guideline for the diagnosis of nose allergy, published by Life Science pp. 20-24 (2006). Based on the results, 40 persons estimated to be cedar- and Japanese cypress-pollen disease were selected as subjects. The subjects were divided into two groups, a test group ingesting lactosucrose (ingesting 3 g of lactosucrose every day) and a control group ingesting placebo, regarding with a score of clinical symptoms of the subjects. Then, “NYU-KA OLIGO 700”, a 76% (w/w)-solid content syrup, comprising lactosucrose, commercialized by Hayashibara Shoji Inc., Okayama, Japan, which comprises 71.5% (w/w) of lactosucrose, 13.7% (w/w) of sucrose, 7.5% (w/w) of lactose, and 7.3% (w/w) of other saccharides, on a dry solid basis, was repackaged into aluminum pillowcases with about 6 g/package (3 g of lactosucrose/package) and the resulting packages were distributed to the subjects of the lactosucrose-ingesting group. In the same manner, “CORN SUGAR A-33”, an about 75% (w/w)-solid content isomerized sugar syrup comprising sucrose, commercialized by Sanwa Cornstarch Co., Ltd., Nara, Japan, which comprises 33.5% (w/w) of sucrose, 33.7% (w/w) of glucose, and 29.2% (w/w) of fructose, on a dry solid basis, was repackaged into packages with about 6 g/package similarly as in the above and distributed to the subjects of the placebo-ingesting group. The ingestion was started at Jan. 16, 2007 (zero week), before the beginning of cedar-pollen season, and then subjects were allowed to ingest one package of the test substance at any time every day for 18 weeks. The methods for ingesting the test substance were not restricted and the subjects were permitted to ingest directly from the package or after mixing with other foods and beverages. The experiment was carried out with double blind test and the subjects were not restricted except for ingesting the test substance and were allowed to take medicines including an anti-allergic agent. For evaluating the suppression of allergic symptoms by ingesting the test substance, questionnaire survey was carried out to subjects about clinical symptoms of nose and eyes and difficulties on daily life once per week for 21 weeks, from one week before from starting the ingestion of the test substance to two weeks after of the end of the ingestion. The first questionnaire survey was carried out […]. Based on the respective result of the questionnaire of the group ingesting lactosucrose and the control group, the effects were evaluated by scores determined with regarding the suppressive effect on allergic symptoms of medicines such as an anti-allergic agent used during the test period. […] 9, 2007; the beginning of March; and the end of March; respectively, in the test area, the southern part of Okayama Prefecture. […] 27, 2007; and the end of April in the test area. Accordingly, the ingestion of the test substance in the experiment was started about three weeks before the cedar pollen season. […]"}, "[3]": {"conditions": "3 g of lactosucrose every day, after the start of ingesting the test substance"}},
  "data": [
    {"smiles": "OC[C@H]1O[C@@H](O[C@H]2[C@H](O)[C@@H](O)[C@@H](O[C@]3(CO)O[C@H](CO)[C@@H](O)[C@@H]3O)O[C@@H]2CO)[C@H](O)[C@@H](O)[C@H]1O", "note": "[Lactosucrose, β-D-galactosyl-(1,4)-α-D-glucosyl-(1,2)-β-D-fructoside]", "values": [
      {"measurement": "IgA in cecal content", "setting": "[1]", "value": "5.6 ± 1.6", "unit": "mg/g"},
      {"measurement": "IgA in cecal content, relative value to control", "setting": "[1]", "value": "(982%)"},
      {"measurement": "IgG in cecal content", "setting": "[1]", "value": "140 ± 54", "unit": "ng/g"},
      {"measurement": "IgG in cecal content, relative value to control", "setting": "[1]", "value": "(117%)"},
      {"measurement": "Weight of cecal content", "setting": "[1]", "value": "0.22 ± 0.051", "unit": "g"},
      {"measurement": "Weight of cecal content, relative value to control", "setting": "[1]", "value": "(169%)"},
      {"measurement": "pH of cecal content", "setting": "[1]", "value": "6.63 ± 0.27"},
      {"measurement": "Increase of the amount of secreted IgA in cecal content", "setting": "[1]; versus control", "value": "about 10 folds"},
      {"measurement": "Generation of clinical symptoms and difficulties on daily life in comparison with the control group", "setting": "[2]; 3 g of lactosucrose every day (NYU-KA OLIGO 700), 18 weeks, human pollinosis subjects", "value": "delayed by one week"},
      {"measurement": "Score of clinical symptoms of nose compared with the control group", "setting": "[2]; 3 g of lactosucrose every day, 18 weeks, FIG. 1", "value": "kept lower value than those of the control group during four to 10 weeks"},
      {"measurement": "Score of clinical symptoms of eyes compared with the control group", "setting": "[2]; 3 g of lactosucrose every day, 18 weeks, FIG. 2", "value": "lower than those of the control group though the test period"},
      {"measurement": "Score of difficulties on daily life compared with the control group", "setting": "[2]; 3 g of lactosucrose every day, 18 weeks, FIG. 3", "value": "lower than those of the control group though the test period"},
      {"measurement": "Time at which the score of clinical symptoms of eyes reached a peak", "setting": "[2]; [3]", "value": "eight weeks"},
      {"measurement": "Time at which the score of clinical symptoms of nose reached a peak", "setting": "[2]; [3]", "value": "seven weeks"},
      {"measurement": "Time at which the score of difficulties on daily life reached a peak", "setting": "[2]; [3]", "value": "seven weeks"}
    ]}
  ]
}
